Consider ten compounds from PubChem BioAssay (NCI).

Some test systems named below: SF-268 CNS; 786-0 renal; HCT-15 colon; NCI-H522 lung; NCI/ADR-RES ovarian; HT29 colon; HCT-116 colon; SW-620 colon; SK-MEL-5 melanoma; EKVX NSCLC; COLO 205 colon.
Experiment in all cases: NCI-60 cell line screen, 48 h

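How tested: cells in 96-well plates exposed to compound for 48 hours at five concentrations. TGI denotes the concentration required for complete inhibition of growth.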

In the case of `C(=N\OCCc1ccccc1)/c1cccnc1`, the TGI in the experiment with SF-268 CNS, with 786-0 renal, in the experiment on HCT-15 colon, in the experiment on NCI-H522 lung, with NCI/ADR-RES ovarian and in the experiment with HT29 colon was > 100 µM throughout. Moreover, the TGI in the experiment on HCT-116 colon, in the experiment on SW-620 colon, in the experiment with SK-MEL-5 melanoma, with EKVX NSCLC and in the experiment with COLO 205 colon was > 100 µM each time.

Take `O=C(CC(=O)N1N=C(N(c2ccccc2)c2ccccc2)CC1c1ccccc1)Nc1ccc(Cl)cc1` (stereo not given): the TGI in the experiment on SF-268 CNS, in the experiment with 786-0 renal, in the experiment on HCT-15 colon, in the experiment on NCI-H522 lung, in the experiment on NCI/ADR-RES ovarian and with HT29 colon was > 100 µM each time. In addition, the TGI with HCT-116 colon, with SW-620 colon, in the experiment on SK-MEL-5 melanoma, with EKVX NSCLC and in the experiment with COLO 205 colon was > 100 µM in each case.

Take `CCN(CC)c1ccc2cc(-c3nnc(-c4ccccc4O)o3)c(=O)oc2c1`: the TGI came out at 28.3 µM in the experiment on SF-268 CNS; 21.9 µM with 786-0 renal; 29.4 µM in the experiment with HCT-15 colon; 25.5 µM in the experiment on NCI-H522 lung; 44.1 µM with NCI/ADR-RES ovarian; 26.3 µM in the experiment on HT29 colon. Also, the TGI with HCT-116 colon came to 21.9 µM; in the experiment with SW-620 colon it was 26.9 µM; in the experiment on SK-MEL-5 melanoma it was 25.2 µM; in the experiment on EKVX NSCLC it was 43.4 µM; with COLO 205 colon it was 33.6 µM.

In the case of `COC(=O)[C@@H](Cc1ccccc1)N1O[C@]12CCCC[C@@H]2NC(=O)OC(C)(C)C` (stereo not given in full), the TGI in the experiment with SF-268 CNS is 34.9 µM; in the experiment on 786-0 renal, 51.3 µM; with HCT-15 colon, 33.5 µM; with NCI-H522 lung, 30.4 µM; with NCI/ADR-RES ovarian, 52.4 µM; in the experiment on HT29 colon it was 32.2 µM. The TGI in the experiment on HCT-116 colon was > 100 µM; in the experiment on SW-620 colon, 29.3 µM; with SK-MEL-5 melanoma it was 35.8 µM; in the experiment on EKVX NSCLC it was 82.3 µM; with COLO 205 colon, 75.5 µM.

As for `O=C(Cc1nc2ncccc2[nH]c1=O)c1c[nH]c2ccccc12`, the TGI in the experiment with SF-268 CNS is 30.5 µM; with 786-0 renal it was 40.5 µM; in the experiment on HCT-15 colon it was 95.8 µM; in the experiment on NCI-H522 lung it was 35.4 µM; with NCI/ADR-RES ovarian it was > 100 µM; in the experiment with HT29 colon, 60.9 µM. Also, the TGI with HCT-116 colon amounted to 49 µM; with SW-620 colon it was 40.5 µM; in the experiment on SK-MEL-5 melanoma, 73 µM; in the experiment with EKVX NSCLC it was 56.9 µM; in the experiment with COLO 205 colon, 31.2 µM.

In the case of `CN(C)CC1CCCCCCCCCC(CN(C)C)C1=O` (stereo not given), the TGI is > 53.9 µM with SF-268 CNS; > 40.6 µM in the experiment with 786-0 renal; > 61.2 µM with HCT-15 colon; 10.5 µM in the experiment with NCI-H522 lung; 52.1 µM with NCI/ADR-RES ovarian; > 43.8 µM in the experiment on HT29 colon. In addition, the TGI in the experiment on HCT-116 colon was > 64.5 µM; in the experiment with SW-620 colon, > 45.5 µM; in the experiment with SK-MEL-5 melanoma, 41.2 µM; with EKVX NSCLC it was > 54.2 µM; with COLO 205 colon it was > 100 µM.

With `COC(=O)C1=CN(C2CCCCC2)C2(c3ccccc3)c3ccccc3C(=O)OC(=O)C12` (stereo not given), the TGI in the experiment with SF-268 CNS, with 786-0 renal, with HCT-15 colon, in the experiment with NCI-H522 lung, in the experiment on NCI/ADR-RES ovarian and with HT29 colon was > 100 µM throughout. Besides, the TGI with HCT-116 colon, in the experiment on SW-620 colon, in the experiment on SK-MEL-5 melanoma, in the experiment on EKVX NSCLC and with COLO 205 colon was > 100 µM in each case.

For the compound `NC(=O)/C=c1/c2ccccc2n2nc3ccccc3c12`, the TGI in the experiment with SF-268 CNS was found to be 47.5 µM; with 786-0 renal, 77.4 µM; in the experiment on HCT-15 colon it was 40.8 µM; in the experiment with NCI-H522 lung, 33.2 µM; in the experiment on NCI/ADR-RES ovarian it was 50.7 µM; in the experiment on HT29 colon, 29.8 µM. Also, the TGI in the experiment with HCT-116 colon was 21 µM; in the experiment with SW-620 colon it was 44.5 µM; in the experiment on SK-MEL-5 melanoma, > 100 µM; in the experiment with EKVX NSCLC, 42.7 µM; with COLO 205 colon, 40.6 µM.

Consider `CCOC(=O)c1nc2ccccc2nc1Oc1cc(OC)c(OC)c(OC)c1`, for which the TGI in the experiment on SF-268 CNS, with 786-0 renal, in the experiment on HCT-15 colon, in the experiment on NCI-H522 lung, in the experiment on NCI/ADR-RES ovarian and with HT29 colon was > 100 µM each time. Also, the TGI with HCT-116 colon, with SW-620 colon, in the experiment on SK-MEL-5 melanoma, in the experiment with EKVX NSCLC and in the experiment on COLO 205 colon was > 100 µM throughout.

Regarding `Oc1cccc2cc(Br)cnc12`, the TGI is > 33.9 µM in the experiment on SF-268 CNS; > 100 µM in the experiment on 786-0 renal; > 100 µM in the experiment on HCT-15 colon; 9.18 µM with NCI-H522 lung; 20.6 µM with NCI/ADR-RES ovarian; > 73.1 µM in the experiment on HT29 colon. Moreover, the TGI is > 42.7 µM in the experiment with HCT-116 colon; > 100 µM in the experiment on SW-620 colon; 48.1 µM in the experiment on SK-MEL-5 melanoma; 99 µM in the experiment with EKVX NSCLC; 97.5 µM in the experiment with COLO 205 colon.
